Molecules are shown by their SMILES.

Chain of p53-MDM2 interaction (GST-MDM2 protein aa 23-117 / biotinylated p53 wt peptide) (Q00987 23-117): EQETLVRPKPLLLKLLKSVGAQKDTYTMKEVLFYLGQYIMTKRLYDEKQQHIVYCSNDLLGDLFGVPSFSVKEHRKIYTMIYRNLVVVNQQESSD

The target of this assay is p53-MDM2 interaction (GST-MDM2 protein aa 23-117 / biotinylated p53 wt peptide) (Homo sapiens (Human), UniProt Q00987). Description: Mdm2-p53 Inhibition AlphaScreen. Format: binding. Particulars: GST-MDM2 (aa 23-117) / biotinylated p53 wt peptide. The method, then:
Mdm2-p53 Inhibition AlphaScreen
15 μL of compound in 20% DMSO (serial pre-dilutions of compound are done in 100% DMSO) is pipetted to the wells of a white OptiPlate-96 (Perkin Elmer). A mix consisting of 20 nM GST-MDM2 protein (aa 23-117) and 20 nM biotinylated p53 wt peptide (encompassing aa 16-27 of wt human p53, amino acid sequence […]-Ttds-Lys-Biotin, molecular weight 2132.56 g/mol) is prepared in assay buffer (50 mM Tris/HCl pH 7.2; 120 mM NaCl; 0.1% bovine serum albumin (BSA); 5 mM dithiothreitol (DTT); 1 mM ethylenediaminetetraacetic acid (EDTA); 0.01% Tween 20). 30 μL of the mix is added to the compound dilutions and incubated for 15 min at rt while gently shaking the plate at 300 rounds per minute (rpm). Subsequently, 15 μL of premixed AlphaLISA Glutathione Acceptor Beads and AlphaScreen Streptavidin Donor Beads from PerkinElmer (in assay buffer at a concentration of 10 μg/mL each) are added and the samples are incubated for 30 min at rt in the dark (shaking 300 rpm). Afterwards, the signal is measured in a PerkinElmer Envision HIS Multilabel Reader using the AlphaScreen protocol from Perkin Elmer.
Each plate contains negative controls where biotinylated p53-peptide and GST-MDM2 are left out and replaced by assay buffer. Negative control values are entered as low basis value when using the software GraphPad Prism for calculations. Furthermore, a positive control (5% DMSO instead of test compound; with protein/peptide mix) is pipetted. Determination of IC50 values are carried out using GraphPad Prism 3.03 software (or updates thereof).
Background: Bead proximity is the source of the signal in Alpha formats.
`CC(C)CN1[C@H]2CCn3c(nc4cc(C(=O)O)ccc43)[C@H]2[C@H](c2cccc(Cl)c2F)[C@]12C(=O)Nc1cc(Cl)ccc12` [Ib-110]: half-maximal inhibition (IC50) required 3 nM.
The figure for `CCN1[C@H]2CCn3c(nc4cc(C(=O)O)ccc43)[C@H]2[C@H](c2cccc(Cl)c2F)[C@]12C(=O)Nc1cc(Cl)ccc12` [Ib-111] is 7 nM.
`CCCN1[C@H]2CCn3c(nc4cc(C(=O)O)ccc43)[C@H]2[C@H](c2cccc(Cl)c2F)[C@]12C(=O)Nc1cc(Cl)ccc12` [Ib-113] had a concentration for half-maximal inhibition (IC50) of 4 nM.
The compound `CCCCN1[C@H]2CCn3c(nc4cc(C(=O)O)ccc43)[C@H]2[C@H](c2cccc(Cl)c2F)[C@]12C(=O)Nc1cc(Cl)ccc12` [Ib-115] gave an IC50 of 7 nM.
Then `CCCCCN1[C@H]2CCn3c(nc4cc(C(=O)O)ccc43)[C@H]2[C@H](c2cccc(Cl)c2F)[C@]12C(=O)Nc1cc(Cl)ccc12` [Ib-117], with 8 nM; and `CC(C)CCN1[C@H]2CCn3c(nc4cc(C(=O)O)ccc43)[C@H]2[C@H](c2cccc(Cl)c2F)[C@]12C(=O)Nc1cc(Cl)ccc12` [Ib-119], with 12 nM.
Then `CC(C)=CCN1[C@H]2CCn3c(nc4cc(C(=O)O)ccc43)[C@H]2[C@H](c2cccc(Cl)c2F)[C@]12C(=O)Nc1cc(Cl)ccc12` [Ib-121], with 11 nM; and `O=C(O)c1ccc2c(c1)nc1n2CC[C@H]2[C@@H]1[C@H](c1cccc(Cl)c1F)[C@]1(C(=O)Nc3cc(Cl)ccc31)N2CC1CCC1` [Ib-123], with 4 nM.
Take `O=C(O)c1ccc2c(c1)nc1n2CC[C@H]2[C@@H]1[C@H](c1cccc(Cl)c1F)[C@]1(C(=O)Nc3cc(Cl)ccc31)N2CC1CC(F)(F)C1` [Ib-125]: the IC50 stood at 14 nM.
Then `COCCN1[C@H]2CCn3c(nc4cc(C(=O)O)ccc43)[C@H]2[C@H](c2cccc(Cl)c2F)[C@]12C(=O)Nc1cc(Cl)ccc12` [Ib-127], with 11 nM.
Consider `CC(C)OCCN1[C@H]2CCn3c(nc4cc(C(=O)O)ccc43)[C@H]2[C@H](c2cccc(Cl)c2F)[C@]12C(=O)Nc1cc(Cl)ccc12` [Ib-129], for which the IC50 came out at 10 nM.
Then `CC(C)(C)OCCN1[C@H]2CCn3c(nc4cc(C(=O)O)ccc43)[C@H]2[C@H](c2cccc(Cl)c2F)[C@]12C(=O)Nc1cc(Cl)ccc12` [Ib-131], with 22 nM; and `CS(=O)(=O)CCCN1[C@H]2CCn3c(nc4cc(C(=O)O)ccc43)[C@H]2[C@H](c2cccc(Cl)c2F)[C@]12C(=O)Nc1cc(Cl)ccc12` [Ib-133], with 58 nM; and `O=C(O)c1ccc2c(c1)nc1n2CC[C@H]2[C@@H]1[C@H](c1cccc(Cl)c1F)[C@]1(C(=O)Nc3cc(Cl)ccc31)N2CC1CCCC1` [Ib-135], with 15 nM.
Then `O=C(O)c1ccc2c(c1)nc1n2CC[C@H]2[C@@H]1[C@H](c1cccc(Cl)c1F)[C@]1(C(=O)Nc3cc(Cl)ccc31)N2CC1CCCCC1` [Ib-137], with 34 nM.
Then `CCOc1cccc(CN2[C@H]3CCn4c(nc5cc(C(=O)O)ccc54)[C@H]3[C@H](c3cccc(Cl)c3F)[C@]23C(=O)Nc2cc(Cl)ccc23)c1` [Ib-139], with 4 nM; and `CCOc1cccc(CN2[C@H]3CCn4c(nc5cc(C(=O)O)ccc54)[C@H]3[C@H](c3cccc(Cl)c3F)[C@]23C(=O)Nc2cc(Cl)ccc23)c1` [Ib-140], with 2 nM; and `CCOc1cccc(CN2[C@@H]3CCn4c(nc5cc(C(=O)O)ccc54)[C@@H]3[C@@H](c3cccc(Cl)c3F)[C@@]23C(=O)Nc2cc(Cl)ccc23)c1` [Ib-141], with 48 nM.
As for `COCc1cccc(CN2[C@H]3CCn4c(nc5cc(C(=O)O)ccc54)[C@H]3[C@H](c3cccc(Cl)c3F)[C@]23C(=O)Nc2cc(Cl)ccc23)c1` [Ib-142], it took 3 nM to reach half-maximal inhibition (IC50).
Then `COc1cccc(CCN2[C@H]3CCn4c(nc5cc(C(=O)O)ccc54)[C@H]3[C@H](c3cccc(Cl)c3F)[C@]23C(=O)Nc2cc(Cl)ccc23)c1` [Ib-144], with 8 nM.
The figure for `O=C(O)c1ccc2c(c1)nc1n2CC[C@H]2[C@@H]1[C@H](c1cccc(Cl)c1F)[C@]1(C(=O)Nc3cc(Cl)ccc31)N2CCC(F)(F)F` [Ib-146] is 11 nM; for `N#CC12CC(CN3[C@H]4CCn5c(nc6cc(C(=O)O)ccc65)[C@H]4[C@H](c4cccc(Cl)c4F)[C@]34C(=O)Nc3cc(Cl)ccc34)(C1)C2` [Ib-148] it is 21 nM; for `CC(C)(C)CN1[C@H]2CCn3c(nc4cc(C(=O)O)ccc43)[C@H]2[C@H](c2cccc(Cl)c2F)[C@]12C(=O)Nc1cc(Cl)ccc12` [Ib-150] it is 20 nM.
The figure for `N#Cc1ccc2c(c1)NC(=O)[C@]21[C@@H](c2cccc(Cl)c2F)[C@@H]2c3nc4cc(C(=O)O)ccc4n3CC[C@@H]2N1CC1CC1` [Ib-152] is 7 nM; for `O=C(O)c1ccc2nc3n(c2c1)CC[C@H]1[C@@H]3[C@H](c2cccc(Cl)c2F)[C@]2(C(=O)Nc3cc(Cl)ccc32)N1CC1CC1` [Ib-154] it is 3 nM.
The compound `O=C(O)c1ccc2nc3n(c2c1)CC[C@H]1[C@@H]3[C@H](c2cccc(Cl)c2F)[C@]2(C(=O)Nc3cc(Cl)ccc32)N1CC1CC1` [Ib-155] came in with a half-inhibitory concentration (IC50) of 2 nM.
As to `O=C(O)c1cccc2nc3n(c12)CC[C@H]1[C@@H]3[C@H](c2cccc(Cl)c2F)[C@]2(C(=O)Nc3cc(Cl)ccc32)N1CC1CC1` [Ib-156], the concentration for half-maximal inhibition (IC50) was 5 nM.
`COc1cc2c(cc1C(=O)O)nc1n2CC[C@H]2[C@@H]1[C@H](c1cccc(Cl)c1F)[C@]1(C(=O)Nc3cc(Cl)ccc31)N2CC1CC1` [Ib-157] registered a 50% inhibitory concentration (IC50) of 2 nM.
Turning to `O=C(O)c1cc2nc3n(c2cc1OC(F)(F)F)CC[C@H]1[C@@H]3[C@H](c2cccc(Cl)c2F)[C@]2(C(=O)Nc3cc(Cl)ccc32)N1CC1CC1` [Ib-158], the half-maximal inhibitory concentration (IC50) came out at 3 nM.
The figure for `Cc1cc2c(cc1C(=O)O)nc1n2CC[C@H]2[C@@H]1[C@H](c1cccc(Cl)c1F)[C@]1(C(=O)Nc3cc(Cl)ccc31)N2CC1CC1` [Ib-159] is 7 nM.
Then `Cc1c(C(=O)O)ccc2c1nc1n2CC[C@H]2[C@@H]1[C@H](c1cccc(Cl)c1F)[C@]1(C(=O)Nc3cc(Cl)ccc31)N2CC1CC1` [Ib-160], with 4 nM; and `Cc1cc2c(nc3n2CC[C@H]2[C@@H]3[C@H](c3cccc(Cl)c3F)[C@]3(C(=O)Nc4cc(Cl)ccc43)N2CC2CC2)c(C)c1C(=O)O` [Ib-161], with 11 nM.
Then `CC(C)c1cc2c(cc1C(=O)O)nc1n2CC[C@H]2[C@@H]1[C@H](c1cccc(Cl)c1F)[C@]1(C(=O)Nc3cc(Cl)ccc31)N2CC1CC1` [Ib-162], with 6 nM; and `O=C(O)c1cc2nc3n(c2cc1F)CC[C@H]1[C@@H]3[C@H](c2cccc(Cl)c2F)[C@]2(C(=O)Nc3cc(Cl)ccc32)N1CC1CC1` [Ib-163], with 2 nM.
With `O=C(O)c1cc2nc3n(c2cc1C(F)(F)F)CC[C@H]1[C@@H]3[C@H](c2cccc(Cl)c2F)[C@]2(C(=O)Nc3cc(Cl)ccc32)N1CC1CC1` [Ib-164], half-maximal inhibition (IC50) was put at 3 nM.
Compound `O=C(O)C1(c2ccc3c(c2)nc2n3CC[C@H]3[C@@H]2[C@H](c2cccc(Cl)c2F)[C@]2(C(=O)Nc4cc(Cl)ccc42)N3CC2CC2)CC1` [Ib-165] showed an IC50 of 28 nM.
As for `CC(C)(C(=O)O)c1ccc2c(c1)nc1n2CC[C@H]2[C@@H]1[C@H](c1cccc(Cl)c1F)[C@]1(C(=O)Nc3cc(Cl)ccc31)N2CC1CC1` [Ib-167], 22 nM corresponded to half-maximal inhibition (IC50).
The figure for `O=C(O)Cc1ccc2c(c1)nc1n2CC[C@H]2[C@@H]1[C@H](c1cccc(Cl)c1F)[C@]1(C(=O)Nc3cc(Cl)ccc31)N2CC1CC1` [Ib-169] is 7 nM.

The IC50 is the concentration that inhibits the measured activity by half. Read a low IC50 as greater potency in that assay.

The record behind these values is patent US10717742B2, “Spiro[3H-indole-3,2′-pyrrolidin]-2(1H)-one compounds and derivatives as MDM2-P53 inhibitors” (Boehringer Ingelheim International GmbH, priority 2015, dated 2020).
